Experimental data: US12390435B2, “Electrophiles and electrophile pro-drugs as RAD51 inhibitors” (University of Pittsburgh—Of the Commonwealth System of …, priority 2018, dated 2025)

Key:
Assay type in all cases: cell-based
MCF-10A cells = assay: Western blot of cell cycle and apoptosis proteins; settings: 5 μM, 24 hr
Protocol: (§1) Western blotting was performed. 20-60 μg of total lysates per lane were loaded on 7%, 10%, or 12% SDS-PAGE and transferred onto nitrocellulose or polyvinylidene difluoride membranes (Bio-Rad). The membranes were probed with primary antibodies against caspase-3, multi-drug resistance protein-1 (MRP1), poly [ADP ribose] polymerase-1 (PARP-1), ubiquitin, RelA; cyclin D1, p21, caspase-9, MRP4, IKKβ, pIKKβ, IκBα, or pIκBα (Cell Signaling); caspase-8 (R&D Systems). Samples were normalized to β-actin (Sigma-Aldrich) or GAPDH (Trevigen).

[1] = tested on: MDA-MB-231 and MDA-MB-468 cells; assay: Western blot of cell cycle and apoptosis proteins; settings: 5 μM, 24 hr
Protocol: as §1

[2] = tested on: NF-κB transcriptional activity; assay: NF-κB luciferase reporter; settings: MDA-MB-231 and MDA-MB-468 cells, 5 μM 2 hr then TNFα 20 ng/mL 4 hr
Protocol: Luciferase-chemiluminescence-based analysis of NF-κB transcriptional activity was performed. MDA-MB-231 and MDA-MB-468 cells (˜70% confluence) in 12-well plates were transiently transfected with a NF-κB-luciferase reporter plasmid (Stratagene, La Jolla, CA) with Lipofectamine 3000. […] Each transfection was performed in triplicate. Luciferase activity was measured using the Dual-luciferase assay kit (Promega). Relative light units (RLU) were measured using a 96-well plate luminometer, according to the manufacturer's instructions (Victor II, PerkinElmer Life Sciences). Protein concentration was determined using the BCA Assay (Thermo Fisher Scientific). Data represents the ratio of treated samples to controls in the context of mean RLU/protein content, +/−SD. Three individual experiments were done, and statistical significance was determined by Kruskal-Wallis test followed by Dunn's post-test with Bonferroni corrections for multiple comparisons.

MDA-MB-468 cells = assay: Matrigel cell invasion assay; settings: NO2-OA/NO2-SA 5 μM, JSH-23 10 μM, TNFα 20 ng/mL, 24 hr
Protocol: Cells were then suspended in migration media and placed in the top well of invasion chambers (EMD Millipore). Chemoattractant (5% FBS) was placed in the lower chamber for 24 hr at 37° C. to attract invasive cells. Cells were then harvested and invasion rates were determined according to manufacturer's protocol. Three individual experiments were done, and statistical comparison among treatments was determined by one-way analysis of variance followed by Tukey post-test.

`CCCCCCCCC(=CCCCCCCCC(=O)O)[N+](=O)[O-]` [NO2-OA, 10-nitro-octadec-9-enoic acid] was tested, and the PARP-1 cleavage (MCF-10A cells) was “but not in MCF-10A cells”, the PARP-1 cleavage [1] was “promoted caspase-3-mediated cleavage of PARP-1” and the “caspase-8 and caspase-9 cleavage” value [1] was “increased cleavage of caspase-8 and caspase-9”. For the same compound, the “p21 and cyclin D1 protein expression” value [1] was “an increase in p21 and a decrease in cyclin D1 protein expression”, the “NF-κB-dependent transcription of luciferase” value [2] was “significantly inhibited” and the TNFα-induced invasion (MDA-MB-468 cells) was “significantly inhibited”.
